{
  "source": "patent US10464925B2",
  "about": "“Methods to induce targeted protein degradation through bifunctional molecules” (Dana-Farber Cancer Institute, Inc., priority 2015, dated 2019)",
  "assay_in_all_cases": "cells",
  "key": {"KARPAS": {"system": "KARPAS", "conditions": "72 h"}, "MDA-MB-436": {"system": "MDA-MB-436", "conditions": "Homo sapiens, MDA-MB-436, 72 h"}, "Cl-1": {"system": "Cl-1", "conditions": "72 h"}},
  "data": [
    {"smiles": "Cc1sc2c(c1C)C(c1ccc(Cl)cc1)=N[C@@H](CC(=O)NCCCCCCCCNC(=O)COc1cccc3c1C(=O)N(C1CCC(=O)NC1=O)C3=O)c1nnc(C)n1-2", "note": "(stereo partly drawn) [dBET6]", "values": [
      {"measurement": "Emax", "setting": "KARPAS; read-out: Emax (%) KARPAS", "value": 21, "unit": "%"},
      {"measurement": "IC50", "setting": "KARPAS; read-out: IC50 (nM) KARPAS", "value": 2.18, "unit": "nM"},
      {"measurement": "Emax", "setting": "MDA-MB-436; read-out: Emax (%) MDA-MB-436", "value": 29.5, "unit": "%"},
      {"measurement": "IC50", "setting": "MDA-MB-436; read-out: IC50 (nM) MDA-MB-436", "value": 39.6, "unit": "nM"},
      {"measurement": "Emax", "setting": "Cl-1; read-out: Emax (%) Cl-1", "value": 10.7, "unit": "%"},
      {"measurement": "IC50", "setting": "Cl-1; read-out: IC50 (nM) Cl-1", "value": 23.3, "unit": "nM"}
    ]}
  ]
}
